# Read-outs that look alike come from different tables or passages of the source.
# Experiments:
# [1] = Accelerated stability test of the crystalline form AB (40±2° C., RH 75%±5%, vials sealed and open); format: physicochemical; conditions: for Purity (HPLC method) Open / Purity (HPLC method) Sealed: 40±2° C., RH 75%±5%
# Procedure: Accelerated stability test: the compound 1 was contained in vials, and these vials in sealed and open manners respectively were placed in closed containers (desiccators) with a relative humidity of 75%±5%; the desiccators were placed in an incubator at a temperature of 40±2° C. for 7 months; small samples were taken out at 0, 1, 2, 7 months respectively for detection.
# AXL = biological target: T1, AXL (Homo sapiens, UniProt P30530); experiment: IC50 against AXL; format: biochemical
# T1 sequence (P30530 26-894): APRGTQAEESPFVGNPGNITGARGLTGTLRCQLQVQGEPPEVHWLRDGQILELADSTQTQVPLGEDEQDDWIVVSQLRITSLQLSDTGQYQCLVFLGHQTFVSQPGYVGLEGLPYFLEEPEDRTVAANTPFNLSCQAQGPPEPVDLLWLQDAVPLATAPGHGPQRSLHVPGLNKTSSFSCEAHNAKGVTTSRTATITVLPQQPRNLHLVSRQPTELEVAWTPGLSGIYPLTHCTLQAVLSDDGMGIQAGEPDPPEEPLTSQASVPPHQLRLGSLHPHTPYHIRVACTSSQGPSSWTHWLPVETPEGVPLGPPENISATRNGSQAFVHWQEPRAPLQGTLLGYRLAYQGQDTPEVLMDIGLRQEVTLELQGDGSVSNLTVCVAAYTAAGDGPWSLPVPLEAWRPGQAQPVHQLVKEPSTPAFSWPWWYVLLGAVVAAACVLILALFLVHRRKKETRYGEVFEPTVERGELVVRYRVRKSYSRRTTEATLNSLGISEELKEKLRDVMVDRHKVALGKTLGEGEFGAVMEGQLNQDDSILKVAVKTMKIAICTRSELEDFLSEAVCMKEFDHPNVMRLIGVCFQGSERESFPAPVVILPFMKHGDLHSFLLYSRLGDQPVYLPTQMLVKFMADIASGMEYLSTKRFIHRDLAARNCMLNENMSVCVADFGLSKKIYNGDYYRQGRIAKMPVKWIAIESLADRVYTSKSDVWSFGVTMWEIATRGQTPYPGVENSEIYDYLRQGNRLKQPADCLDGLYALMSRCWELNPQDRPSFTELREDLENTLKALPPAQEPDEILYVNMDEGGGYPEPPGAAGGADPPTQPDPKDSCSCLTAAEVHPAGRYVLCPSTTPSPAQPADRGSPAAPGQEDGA
# VEGF-R2 = VEGF-R2 (Homo sapiens, UniProt P35968); experiment: IC50 against VEGF-R2; format: biochemical
# Chain of VEGF-R2 (P35968 20-1356): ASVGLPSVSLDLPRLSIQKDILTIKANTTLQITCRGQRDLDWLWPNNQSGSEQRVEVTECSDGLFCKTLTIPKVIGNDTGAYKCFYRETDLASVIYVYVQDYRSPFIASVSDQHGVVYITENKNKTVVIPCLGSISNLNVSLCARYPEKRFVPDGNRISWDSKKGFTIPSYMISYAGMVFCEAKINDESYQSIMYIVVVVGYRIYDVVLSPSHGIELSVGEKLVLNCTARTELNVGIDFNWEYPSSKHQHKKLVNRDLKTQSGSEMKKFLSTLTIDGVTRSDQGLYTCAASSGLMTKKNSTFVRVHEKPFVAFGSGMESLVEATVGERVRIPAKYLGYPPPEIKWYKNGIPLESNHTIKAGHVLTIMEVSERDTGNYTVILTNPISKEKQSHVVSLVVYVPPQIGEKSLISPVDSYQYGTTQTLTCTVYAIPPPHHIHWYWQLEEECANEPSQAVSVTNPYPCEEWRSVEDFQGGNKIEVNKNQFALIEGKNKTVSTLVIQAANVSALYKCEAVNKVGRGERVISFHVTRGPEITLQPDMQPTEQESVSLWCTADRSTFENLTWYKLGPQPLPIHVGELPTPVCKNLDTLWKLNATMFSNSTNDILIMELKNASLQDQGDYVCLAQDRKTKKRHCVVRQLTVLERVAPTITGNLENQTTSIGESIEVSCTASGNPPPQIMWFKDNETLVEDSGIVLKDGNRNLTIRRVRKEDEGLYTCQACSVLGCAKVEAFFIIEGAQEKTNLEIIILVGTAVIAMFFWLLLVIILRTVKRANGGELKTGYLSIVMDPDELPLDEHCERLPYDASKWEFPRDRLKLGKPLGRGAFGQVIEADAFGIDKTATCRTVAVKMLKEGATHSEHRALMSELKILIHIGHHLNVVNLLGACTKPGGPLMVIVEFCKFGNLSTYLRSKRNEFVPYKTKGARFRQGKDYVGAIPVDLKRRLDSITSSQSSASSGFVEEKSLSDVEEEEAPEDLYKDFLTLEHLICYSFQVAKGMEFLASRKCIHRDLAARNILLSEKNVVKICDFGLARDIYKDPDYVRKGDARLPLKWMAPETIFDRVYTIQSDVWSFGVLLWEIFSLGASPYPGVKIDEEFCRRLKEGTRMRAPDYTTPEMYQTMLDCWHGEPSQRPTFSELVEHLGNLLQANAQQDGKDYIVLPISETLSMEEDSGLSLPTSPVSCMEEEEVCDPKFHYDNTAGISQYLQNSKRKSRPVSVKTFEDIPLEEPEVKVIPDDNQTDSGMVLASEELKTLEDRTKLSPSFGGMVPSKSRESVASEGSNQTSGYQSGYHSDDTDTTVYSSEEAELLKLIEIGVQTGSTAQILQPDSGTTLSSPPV
# MOLM-13 cells = experiment: Human acute myeloid leukemia subcutaneous xenograft tumor model (MOLM-13); format: in vivo, mice
# Excerpt: Mice were inoculated subcutaneously with MOLM-13 cells and a human acute myeloid leukemia subcutaneous xenograft tumor model was established. After 14 days of intragastric administration of the crystalline form AB to animals, tumors were taken and tumor volume data were collected.
# NCI-H1703 cells = experiment: Lung cancer subcutaneous xenotransplantation tumor model (NCI-H1703); format: in vivo, mice; conditions: for Tumor Inhibition Rate %: intragastric, 28 days, below line 'Micronization'
# Excerpt: NCIH-1703 cells were inoculated subcutaneously in mice to establish a lung cancer subcutaneous xenotransplantation tumor model. After 28 days of intragastric administration of the crystalline form AB to animals, tumors were taken and tumor volume data were collected.
# [2] = Bioavailability analysis (pharmacokinetics) of crystalline forms in mice; format: in vivo; design: AUClast / AUCInf: concentration or dose not given beside the values; conditions: gavage, suspension in CMC-Na, mean
# Procedure: Drug samples of different crystalline forms of the compound 1 were added to a solution of 1 CMC-Na respectively to prepare suspensions, which were administrated to mice by gavage. Drug samples of the different crystalline forms of the compound 1 were prepared into solutions in DMSO/PEG400/water and administered intravenously to mice. After drug administration, blood samples were collected from the dorsal vein of foot at different time points. After anticoagulation with heparin sodium, plasma was extracted by centrifugation. Plasma samples were analyzed by LC-MS/MS to obtain plasma drug concentrations. Pharmacokinetic parameters were calculated by WinNonlin (Phoenix™) The results of the bioavailability analysis for the crystalline form AB, the crystalline form M, and the crystalline form F are presented in Table 6.
# [3] = Accelerated stability test of the crystalline form M and the crystalline form F (40±2° C., RH 75±5%, open petri dish); format: physicochemical; conditions: for Change in purity in 3 months' accelerated stability test: before and after grinding/pulverization
# Procedure: Accelerated stability test: the crystalline form M of the compound 1 was contained in a petri dish, which was placed in an open manner in a closed container (desiccator) with a relative humidity of 75±5%; the desiccator was placed in an incubator at 40±2° C. for 3 months, and small samples were taken out at 0, 1, 2, 3 months respectively for detection.
# Accelerated stability test: the crystalline form F of the compound 1 was contained in a petri dish, which was put in an open manner in a closed container (desiccator) with a relative humidity of 75±5%; the desiccator was placed in an incubator at 40±2° C. for 3 months; small samples were taken out at 0, 1, 2 and 3 months respectively for detection.
# [4] = 1 month, open, 40±2° C., RH 75±5%
# [5] = 2 months, open, 40±2° C., RH 75±5%
# [6] = 3 months, open, 40±2° C., RH 75±5%
compound,measurement,setting,value
"COc1cc2c(Oc3ccc(NC(=O)C4(C(=O)Nc5ccc(F)cc5)CC4)cc3F)ccnc2cc1OCCCCCC(=O)O [crystalline form AB, 6-[[4-[2-fluoro-4-[[1-[(4-fluorophenyl)aminoformyl]cyclopropanecarbonyl]amino]phenoxy]-6-methoxy-7-quinolyl]oxy] hexanoic acid]",Purity (HPLC method) Open,[1]; 1 month,99.36%
same,Purity (HPLC method) Sealed,[1]; 1 month,99.32%
same,Purity (HPLC method) Open,[1]; 2 months,99.35%
same,Purity (HPLC method) Sealed,[1]; 2 months,99.34%
same,Purity (HPLC method) Open,[1]; 7 months,99.36%
same,Purity (HPLC method) Sealed,[1]; 7 months,99.32%
same,Stability (conclusion in words),"[1]; accelerated stability test, 7 months",good stability
same,Purity (HPLC method),[1]; storage time 0 month,99.35%
same,IC50,AXL,240 pM
same,IC50,VEGF-R2,380 pM
same,Tumor Inhibition Rate %,"MOLM-13 cells; 1.5 mg/kg, intragastric, 14 days",51.5%
same,Tumor growth,MOLM-13 cells; 3 mg/kg,significantly inhibited tumor growth
same,Tumor Inhibition Rate %,"MOLM-13 cells; 3 mg/kg, intragastric, 14 days",81.9%
same,Tumor growth,MOLM-13 cells; 6 mg/kg or 6.25 mg/kg,"inhibited tumor growth, and the tumor disappeared in some mice on day 14 after the administration"
same,Tumor Inhibition Rate %,"MOLM-13 cells; 6 mg/kg, intragastric, 14 days",96.7%
same,Tumor Inhibition Rate %,"MOLM-13 cells; 6.25 mg/kg, intragastric, 14 days",95.6%
same,median effective dose EC50,"MOLM-13 cells; intragastric, 14 days",1.5 mg/kg
same,Tumor growth,NCI-H1703 cells; 6.25 mg/kg,significantly inhibit tumor growth
same,Tumor Inhibition Rate %,NCI-H1703 cells; 6.25 mg/kg,87.0%
same,Tumor growth,NCI-H1703 cells; 12.5 mg/kg,significantly inhibit tumor growth and tumor regression was observed for some mice
same,Tumor growth,"NCI-H1703 cells; 12.5 mg/kg, 25 mg/kg and 50 mg/kg",significantly inhibited tumor growth and the number of tumor regression cases presented a gradual increase
same,Tumor Inhibition Rate %,NCI-H1703 cells; 12.5 mg/kg,94.7%
same,Tumor Inhibition Rate %,NCI-H1703 cells; 25 mg/kg,98.5%
same,Tumor Inhibition Rate %,NCI-H1703 cells; 50 mg/kg,99.2%
same,AUCInf,[2],2414 ng·h/mL
same,AUC_% Extrap,[2],1.19%
same,AUClast,[2],2399 ng·h/mL
same,AUClast/D,[2],240 ng·h/mL per mg/kg
same,Cmax,[2],930 ng/mL
same,MRT,[2],1.91 h
same,T1/2,[2],0.86 h
same,Tmax,"[2]; mouse, plasma, po, 10 mg/kg, read-out: Tmax",1.33 h
"COc1cc2c(Oc3ccc(NC(=O)C4(C(=O)Nc5ccc(F)cc5)CC4)cc3F)ccnc2cc1OCCCCCC(=O)O [crystalline form F, 6-[[4-[2-fluoro-4-[[1-[(4-fluorophenyl)aminoformyl]cyclopropanecarbonyl]amino]phenoxy]-6-methoxy-7-quinolyl]oxy] hexanoic acid]",Purity (HPLC method) After grinding,[3]; 0 month,99.13%
same,Purity (HPLC method) Before grinding,[3]; 0 month,99.13%
same,Purity (HPLC method) After grinding,[3]; [4],99.32%
same,Purity (HPLC method) Before grinding,[3]; [4],99.33%
same,Purity (HPLC method) After grinding,[3]; [5],99.07%
same,Purity (HPLC method) Before grinding,[3]; [5],99.09%
same,Purity (HPLC method) After grinding,[3]; [6],99.06%
same,Purity (HPLC method) Before grinding,[3]; [6],99.07%
same,Change in purity in 3 months' accelerated stability test,[3],substantially no change in purity
same,AUCInf,[2],675 ng·h/mL
same,AUC_% Extrap,[2],22.7%
same,AUClast,[2],505 ng·h/mL
same,AUClast/D,[2],50.5 ng·h/mL per mg/kg
same,Cmax,[2],201 ng/mL
same,MRT,[2],3.05 h
same,T1/2,[2],1.7 h
same,Tmax,[2],1.5 h
"COc1cc2c(Oc3ccc(NC(=O)C4(C(=O)Nc5ccc(F)cc5)CC4)cc3F)ccnc2cc1OCCCCCC(=O)O [crystalline form M, 6-[[4-[2-fluoro-4-[[1-[(4-fluorophenyl)aminoformyl]cyclopropanecarbonyl]amino]phenoxy]-6-methoxy-7-quinolyl]oxy] hexanoic acid]",Purity (HPLC method) After grinding,[3]; 0 month,99.22%
same,Purity (HPLC method) Before grinding,[3]; 0 month,99.21%
same,Purity (HPLC method) After grinding,[3]; [4],99.37%
same,Purity (HPLC method) Before grinding,[3]; [4],99.36%
same,Purity (HPLC method) After grinding,[3]; [5],99.17%
same,Purity (HPLC method) Before grinding,[3]; [5],99.16%
same,Purity (HPLC method) After grinding,[3]; [6],99.19%
same,Purity (HPLC method) Before grinding,[3]; [6],99.19%
same,Change in purity in 3 months' accelerated stability test,[3],substantially no change in purity
same,AUCInf,[2],1110 ng·h/mL
same,AUC_% Extrap,[2],39%
same,AUClast,[2],581 ng·h/mL
same,AUClast/D,[2],58.1 ng·h/mL per mg/kg
same,Cmax,[2],200 ng/mL
same,MRT,[2],5.65 h
same,T1/2,[2],3.61 h
same,Tmax,[2],0.917 h

# From patent US12291503B2, “Crystalline form of compound, method for preparing the same, pharmaceutical composition and use” (Beijing Konruns Pharmaceutical Co., Ltd., priority 2019, dated 2025)
